The experiment has as its target T1, human kidney PTH/PTHrP receptor (Homo sapiens, UniProt Q03431, L389Q).
T1 construct: The full-length human kidney PTH/PTHrP receptor cDNA, HKrk, was constructed using the BamHI/PvuII fragment of PCR clone #2 and HK-2; expressed in transfected cells; host or cells: COS-7 cells, transient (DEAE/Dextran), pcDNAI
T1 sequence (Q03431 27-593 L389Q): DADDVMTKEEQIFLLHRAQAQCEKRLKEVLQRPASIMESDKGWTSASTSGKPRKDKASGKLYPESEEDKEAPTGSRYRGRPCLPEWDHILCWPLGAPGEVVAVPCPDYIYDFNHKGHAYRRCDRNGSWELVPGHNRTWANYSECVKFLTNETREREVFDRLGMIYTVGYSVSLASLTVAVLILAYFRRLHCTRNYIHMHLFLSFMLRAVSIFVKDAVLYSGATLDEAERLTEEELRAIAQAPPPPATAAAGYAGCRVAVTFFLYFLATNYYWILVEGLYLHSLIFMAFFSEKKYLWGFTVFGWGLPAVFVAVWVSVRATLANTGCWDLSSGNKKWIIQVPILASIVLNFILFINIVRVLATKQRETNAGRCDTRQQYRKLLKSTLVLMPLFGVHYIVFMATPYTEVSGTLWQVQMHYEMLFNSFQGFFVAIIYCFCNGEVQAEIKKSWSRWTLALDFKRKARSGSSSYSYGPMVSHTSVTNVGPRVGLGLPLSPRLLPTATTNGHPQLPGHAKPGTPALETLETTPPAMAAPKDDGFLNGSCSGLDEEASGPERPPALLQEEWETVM
Put plainly: cAMP accumulation, COS-7 cells expressing human kidney receptor. The settings on record: COS-7 cells expressing human receptor, FIG. 18. The experiment is classed as cell-based. The method, then: Intracellular cAMP accumulation was measured as described previously (Abou-Samra et al., J. Biol. Chem. 262:1129, 1986). Cells in 24-well plates were rinsed with culture medium containing 0.1% BSA and 2 mM IBMX. […] The supernatant was removed and the cells immediately frozen by placing the whole plate in dry ice powder. Intracellular cAMP was extracted by thawing the cells in 1 ml of 50 mM HCl and analyzed by a specific radioimmunoassay using an anti-cAMP antibody (e.g., Sigma, St. Louis, Mo.). A cAMP analog (2′-O-monosuccinyl-adenosine 3′:5′-cyclic monophosphate tyrosyl methyl ester, obtained from Sigma) which was used a tracer for cAMP was iodinated by the chloramine T method. Free iodine was removed by adsorbing the iodinated cAMP analog onto a C18 Sep-pak cartridge (Waters, Milford, Mass.). After washing with dH2O, the iodinated cAMP analog was eluted from the Sep-pak Cartridge with 40% acetonitrille (ACN) and 0.1% trifluoroacetic acid (TFA). The iodinated cAMP analog was lyophilized, reconstituted in 1 ml 0.1% TFA, and injected into a C18 reverse phase HPLC column (Waters). The column was equilibrated with 10% ACN in 0.1% TFA, and eluted with gradient of 10-30% ACN in 0.1% TFA. This allows separation of the mono-iodinated cAMP analog from the non-iodinated cAMP analog. […] The standard used for the assay, adenosine 3′:5′-cyclic monophosphate, was purchased from Sigma. […]

This note sets out measurements from patent publication US7150974B1, “Parathyroid hormone receptor binding method” (The General Hospital Corporation, priority 1991, dated 2006).

On to [Nle^8,18, Tyr^34]bPTH(1-34)amide, for which the “cAMP accumulation, PTH(1-34) compared with PTHrP(1-36)” value is given as “to the same extent”.
